Biological target: T1, 5HT6-human recombinant receptor (Homo sapiens, UniProt P50406)
T1 construct: purchased Receptor Biology; host or cells: HEK-293 cells (membranes)
Experiment: Binding to serotonin receptor 5-HT6 ([3H]-LSD displacement)
Settings: membranes of HEK-293 cells expressing the receptor; radioligand [3H]-LSD 2.7 nM; 60 minutes at 37° C.
Experimental: I) Binding to Serotonin Receptor 5-HT6
Cell membranes of HEK-293 cells expressing the 5HT6-human recombinant receptor were supplied by Receptor Biology. In said membranes the receptor concentration is 2.18 pmol/mg protein and the protein concentration is 9.17 mg/ml. The experimental protocol follows the method of B. L. Roth et al. [B. L. Roth, S. C. Craigo, M. S. Choudhary, A. Uluer, F. J. Monsma, Y. Shen, H. Y. Meltzer, D. R. Sibley: Binding of Typical and Atypical Antipsychotic Agents to 5-Hydroxytryptamine-6 and Hydroxytryptamine-7 Receptors. The Journal of Pharmacology and Experimental Therapeutics, 1994, 268, 1403] with the following slight changes. The respective part of the literature description is hereby incorporated by reference and forms part of the disclosure.
The commercial membrane is diluted (1:40 dilution) with the binding buffer: 50 mM Tris-HCl, 10 mM MgCl2,0.5 mM EDTA (pH 7.4). The radioligand used is [^3H]-LSD at a concentration of 2.7 nM with a final volume of 200 μl. Incubation is initiated by adding 100 μl of membrane suspension, (≈22.9 μg membrane protein), and is prolonged for 60 minutes at a temperature of 37° C. The incubation is ended by fast filtration in a Brandel Cell Harvester through fiber glass filters made by Schleicher & Schuell GF 3362 pretreated with a solution of polyethylenimine at 0.5%. The filters are washed three times with three milliliters of buffer Tris-HCl 50 mM pH 7.4. The filters are transferred to flasks and 5 ml of Ecoscint H liquid scintillation cocktail are added to each flask. The flasks are allowed to reach equilibrium for several hours before counting with a Wallac Winspectral 1414 scintillation counter. Non-specific binding is determined in the presence of 100 μM of serotonin. Tests were made in triplicate. The inhibition constants (Ki, nM) were calculated by non-linear regression analysis using the program EBDA/LIGAND described in Munson and Rodbard, Analytical Biochemistry, 1980, 107, 220, the respective part of which is hereby incorporated by reference and forms part of the disclosure.
The binding of the substituted phenyl-piperazine compounds to the 5-HT6 receptor was determined as described above.

T1 sequence (P50406 whole entry): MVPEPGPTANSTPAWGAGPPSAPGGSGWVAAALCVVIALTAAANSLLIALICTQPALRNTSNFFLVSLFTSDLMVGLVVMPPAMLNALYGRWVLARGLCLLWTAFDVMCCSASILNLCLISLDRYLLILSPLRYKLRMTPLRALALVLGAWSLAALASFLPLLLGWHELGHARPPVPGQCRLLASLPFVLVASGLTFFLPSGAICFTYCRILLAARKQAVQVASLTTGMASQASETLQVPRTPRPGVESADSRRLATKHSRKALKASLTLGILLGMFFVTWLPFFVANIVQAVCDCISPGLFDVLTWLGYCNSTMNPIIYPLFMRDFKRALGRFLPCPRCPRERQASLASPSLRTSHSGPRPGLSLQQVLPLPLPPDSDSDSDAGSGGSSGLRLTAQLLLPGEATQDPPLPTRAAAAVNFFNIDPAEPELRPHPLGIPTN

Ki | SMILES
108 nM | CN1CCN(c2ccc(C#N)c(NCc3ccccc3)c2)CC1 [Example 5, 2-Benzylamino-4-(4-methyl-piperazin-1-yl)-benzonitrile]
462 nM | COC(=O)c1ccc(N2CCN(C)CC2)cc1NCCc1ccccc1 [Example 6, 4-(4-Methyl-piperazin-1-yl)-2-phenethylamino-benzoic acid methyl ester]
1280 nM | CN1CCN(c2ccc(OCc3ccccc3)c(NCCc3ccccc3)c2)CC1 [Example 9, [2-Benzyloxy-5-(4-methyl-piperazin-1-yl)-phenyl]-phenethyl-amine]
402 nM | CN1CCN(c2ccc(OCc3ccccc3)c(NCc3ccco3)c2)CC1 [Example 10]
164 nM | CC(=O)N(Cc1ccccc1)c1ccc(N2CCN(C)CC2)cc1N [Example 23, N-[2-Amino-4-(4-methyl-piperazin-1-yl)-phenyl]-N-benzyl-acetamide]
60.2 nM | CN1CCN(c2ccc(NS(=O)(=O)c3ccccc3)c(NCc3ccccc3)c2)CC1 [Example 24, N-[2-Benzylamino-4-(4-methyl-piperazin-1-yl)-phenyl]-benzenesulfonamide]

SMILES | Ki
COc1ccc(N2CCN(C)CC2)cc1NCc1ccccc1 [Example 11, Benzyl-[2-methoxy-5-(4-methyl-piperazin-1-yl)-phenyl]-amine] | 409 nM

— US20090042904A1 (LABORATORIOS DEL DR. ESTEVE S.A., priority 2004, published 2009)
